Reference: patent US9157906B2, “Phosphodiesterase activity and regulation of phosphodiesterase 1B-mediated signaling in brain” (THE ROCKEFELLER UNIVERSITY, priority 2001, dated 2015)
Counter-ions that a name gives are not always drawn.

Columns and labels:
DARPP-32 at Thr34 = test: Phosphorylation of DARPP-32 at Thr34 in striatal slices, immunoblot with phosphorylation state-specific antibodies; type: cell-based, mouse; details: for increase in levels of phospho-Thr34 DARPP-32 and phospho-Ser845 GluR1: forskolin (10, unit not given)
Experimental: (§1) Male PDE1B−/− (null) and WT mice (8-12 weeks of age) were decapitated. The brain was transferred rapidly to an ice-cold surface, blocked, and fixed to the cutting surface of a Vibratome (Ted Pella, Redding, Calif.) maintained at 4° C. The brain was submersed in cold, oxygenated (95% O2/5% CO2) Krebs' bicarbonate buffer of the following composition (in mM): 125 NaCl, 5KCl, 26 NaHCO3, 1.5 CaCl2, 1.5 MgSO4, and 10 glucose, pH 7.4. Coronal mouse brain sections (400 μm in thickness) were cut and pooled in cold buffer. Striatal or nucleus accumbens slices were cut from the coronal sections under a dissecting microscope. Individual slices were preincubated in fresh buffer for 15 min at 30° C.; the buffer was replaced, and preincubation continued for an additional 30 min. […] Slices were frozen immediately in liquid nitrogen and stored at −80° C. until assayed.
Frozen slices were sonicated in homogenization buffer containing 1% SDS. Small aliquots of the homogenate were retained for protein determination by standard assays using bovine serum albumin as the standard. Equal amounts of protein (50 μg) were loaded onto 10% acrylamide gels, separated by SDS/PAGE, and transferred to nitrocellulose membranes by a method described by Tobin et al. (1979. Proc. Natl. Acad. Sci, USA 76:4350-4354). […]
(§2) Chemiluminescence was detected by autoradiography and bands were quantified by analysis of scanned images using NIH Image 1.52 software. Because the linear range for quantitation of ECL signals by densitometry is limited, several film exposures were obtained for each set of samples to insure that the signals were within a density range that allowed for accurate quantitation. […]

[1] = tested on: GluR1 AMPA receptor at Ser845; test: Phosphorylation of GluR1 AMPA receptor at Ser845 in striatal slices, immunoblot with phosphorylation state-specific antibodies; type: cell-based, mouse; details: striatal slices of PDE1B null mice; 10 μM, 10 minutes
Experimental: as §1
Frozen slices were sonicated in homogenization buffer containing 1% SDS. […]
as §2

[2] = tested on: D1-mediated phosphorylation; test: D1-mediated phosphorylation in nucleus accumbens slices; type: cell-based, mouse; details: D1 receptor agonist
Experimental: Male PDE1B−/− (null) and WT mice (8-12 weeks of age) were decapitated. The brain was transferred rapidly to an ice-cold surface, blocked, and fixed to the cutting surface of a Vibratome (Ted Pella, Redding, Calif.) maintained at 4° C. The brain was submersed in cold, oxygenated (95% O2/5% CO2) Krebs' bicarbonate buffer of the following composition (in mM): 125 NaCl, 5KCl, 26 NaHCO3, 1.5 CaCl2, 1.5 MgSO4, and 10 glucose, pH 7.4. Coronal mouse brain sections (400 μm in thickness) were cut and pooled in cold buffer. Striatal or nucleus accumbens slices were cut from the coronal sections under a dissecting microscope. Individual slices were preincubated in fresh buffer for 15 min at 30° C.; the buffer was replaced, and preincubation continued for an additional 30 min. At the end of this second preincubation period the buffer was replaced with Krebs' buffer or buffer containing test substances for 5 min. Slices were frozen immediately in liquid nitrogen and stored at −80° C. until assayed. […]
as §2

PDE1B null mice = test: Methamphetamine-stimulated horizontal locomotor activity (Digiscan apparatus); details: 1 mg/kg subcutaneous

Oc1cc2c(c(Cl)c1O)CCNCC2c1ccccc1 (stereo not drawn) [SKF81297]
increase for phospho-Thr34 as compared to controls (DARPP-32 at Thr34; striatal slices of PDE1B null mice, 10 μM, 10 minutes): 15 fold | increase for phospho-Ser845 as compared to controls [1]: 13 fold | D1-mediated phosphorylation in PDE1B null mice as compared to wild-type mice [2]: enhanced

C=C[C@@]1(C)CC(=O)[C@]2(O)[C@@]3(C)[C@@H](O)CCC(C)(C)[C@@H]3[C@H](O)[C@H](OC(C)=O)[C@@]2(C)O1 [Forskolin]
increase in levels of phospho-Thr34 DARPP-32 and phospho-Ser845 GluR1 (DARPP-32 at Thr34; striatal slices from PDE1B null mice): 65 fold | increase in levels of phospho-Thr34 DARPP-32 and phospho-Ser845 GluR1 (DARPP-32 at Thr34; striatal slices from wild-type mice): 21 fold

CN[C@@H](C)Cc1ccccc1 [methamphetamine, d-methamphetamine hydrochloride]
duration of stimulated hyperactivity response after treatment (PDE1B null mice): 90 min
